Results: a melting point compilation (Tetko et al.; mined from patent text by program, amines drawn as free bases though some values may be those of a salt)

Row | SMILES | melting point [°C]
1 | C=C(C)CSc1nc2c(cc1C#N)C(=O)CCC2 | 85 to 86
2 | O=c1nc(-c2ccnc(N3CCN(c4ccc(F)cc4)CC3)c2)sc2ccccc12 | 233 to 234
3 | COCCOc1ccc(CN2C(=O)C3(COc4cc5c(cc43)OCCO5)c3ccccc32)cc1 (stereo unspecified) | 124 to 125
4 | C=CC(=O)N1CCc2cc(OC)c(OC)cc2C12CCC(C(=O)OCC)(C(=O)OCC)CC2C1c2cc(OC)c(OC)cc2CCN1CC (stereo unspecified) | 150 to 151
5 | C#CCCN1CCC(O)(Cc2ccccc2)CC1 | 51 to 53
6 | CC(C)Nc1nc2cc(Cl)c(Cl)cc2n1[C@H]1C[C@@H](CO)[C@H](O)[C@@H]1O | 137 to 138
7 | CCCc1nc2c(N)nc3cc(Oc4ccc(C#N)cc4)ccc3c2n1CC(C)C | 223 to 225
8 | O=C(c1ccccc1F)c1cc(Cl)ccc1C=CCN1C(=O)c2ccccc2C1=O | 117
9 | CCCCCCC1(CCCCCC)c2ccccc2-c2ccccc21 | 31 to 33
10 | COc1cc2c(cc1OC)C1(CNC(=O)C1)CC2=O (stereo unspecified) | 193 to 195
11 | CCOC1=Nc2ccc(Cl)cc2C(c2ccccc2Cl)=NC1OC (stereo unspecified) | 110 to 113
12 | O=c1[nH]c(CCl)c(Br)c(=O)[nH]1 | 245
13 | O=[N+]([O-])c1cc(C(F)(F)F)c(Cl)c([N+](=O)[O-])c1Nc1ncc(Cl)cc1Cl | 64 to 65
14 | CN1CCC(c2n[nH]c3cc(F)ccc23)CC1 | 217 to 220
15 | C=CC1CN(c2ncc(C(=O)N(CCCCC)c3cccc(C(F)(F)F)c3)c(N)n2)C(=O)N1 (stereo unspecified) | 135 to 137
16 | CC(C)(CO)NS(=O)(=O)c1cc(NC(=O)c2cnn3c(C(F)(F)F)cc(-c4ccc(C(F)(F)F)cc4)nc23)c(Cl)s1 | 223
17 | C[C@H]1[C@@H](C(C)(C)O)CCN1c1ccc(C#N)c(Cl)c1F | 125 to 126
18 | CCCCOC(=O)[C@@H]1OC(c2ccc(C#Cc3ccc(C4O[C@@H](C(=O)OCCCC)[C@H](C(=O)OCCCC)O4)cc3)cc2)O[C@H]1C(=O)OCCCC | 54
19 | COc1ccc2nc(Oc3c(Cl)cc(N)cc3Cl)sc2c1 | 158 to 160
20 | Cn1ncc(C=O)c1-c1ccc([N+](=O)[O-])o1 | 130
21 | CCCCn1c(=O)n(OCc2ccccc2)c(=O)c2cc(F)c(Cl)nc21 | 147 to 148
22 | NC(=NCC(F)(F)F)Nc1nc(CO)ns1 | 123 to 125

Row | SMILES | melting point [°C]
23 | COc1cc(Nc2ncc(-c3ccccc3)o2)ccc1-c1cnco1 | 212 to 215
24 | COC(=O)Cc1cc([N+](=O)[O-])c(OC)c2c1N(C(C)=O)CC2 | 181 to 182
25 | CCCCNC(=O)CC(F)=C(F)F | 34 to 36
26 | CCCCCC1CCC(C2CCC(CC(O)CC)CC2)CC1 (stereo unspecified) | 131
27 | Cc1cc(C)nc(NCCN(C(C)C)C(C)C)n1 | 79.5 to 82
28 | COc1c(Cc2c[nH]cn2)cccc1C(N)=O | 160
29 | COc1ccc(N=C2C=CC(=O)C=C2)c(CO)c1 | 87 to 89
30 | CC(C)(C)c1cc(S)n2ncnc2n1 | 285 to 286
31 | CCOC(=O)c1c(Cn2cnnc2)nc2sc(C)c(C)c2c1-c1ccc2c(c1)OCO2 | 96 to 98
32 | CCC(N)(P(=O)(O)O)P(=O)(O)O | 282
33 | Cc1cn(-c2cc(NC(=O)c3ccc(Cl)c(C#Cc4cnc(NC5CC5)nc4)c3)cc(C(F)(F)F)c2)cn1 | 163 to 165
34 | Oc1cc2c(cc1CCCCSc1cccnc1)OCC2 | 130 to 131
35 | C[C@@H](n1cncn1)[C@](O)(Cn1cncn1)c1ccccc1F | 105 to 106
36 | O=Cc1cc(C(=O)CCl)c[nH]1 | 178 to 179
37 | CCCCCCCCCCCCCCCCCCOc1ccc2c(c1OCCCCCCCCCCCCCCCCCC)C(=O)c1ccccc1C2=O | 100 to 107
38 | O=C(Nc1nc2ccc(C(F)(F)F)cc2s1)c1c(F)cccc1F | 256 to 257
39 | O=c1n(CC(O)(Cn2cncn2)c2ccc(F)cc2F)cnn1-c1ccc(OC(F)(F)F)cc1 (racemic) | 128 to 130
40 | O=C(N[C@H]1CC[C@H](CCN2CCN(c3nccc4c3CCO4)CC2)CC1)c1ccnc2ccccc12 | 210
41 | Clc1cccc(Nc2ncnc3[nH]nc(NCc4ccc(-c5ccccc5)cc4)c23)c1 | 250 to 252
42 | CN1c2ccc(C=C(c3ccccc3)c3ccccc3)cc2S(=O)(=O)c2cc(C=C(c3ccccc3)c3ccccc3)ccc21 | 246 to 252
43 | O=C1CC(=O)N(c2ccccc2)c2cc(Cl)ccc2N1Cc1ccccc1 | 173 to 175
44 | CCC1C(=O)N(CC)CCc2c1ccc(Nc1ncc(Cl)c(Nc3ccccc3C(=O)NC)n1)c2OC (stereo unspecified) | 157 to 158

Next, values leading:

Row | melting point [°C] | SMILES
45 | 148 to 150 | CC(Cc1ccc(OCC(=O)O)c(F)c1)NS(=O)(=O)c1ccccc1 (stereo unspecified)
46 | 175 to 176 | COc1ccc(C2c3c(C)c(NC(=O)CC(C)(C)C)c(C)c(C)c3OC2(C)C)cc1 (stereo unspecified)
47 | 143 to 144 | O=C1CCCCC1C(C[N+](=O)[O-])c1ccc(OCc2ccccc2)cc1 (racemic)
48 | > 280 | CC(C)(C)OC(=O)c1nc(-c2ccc([N+](=O)[O-])cc2)[nH]c1-c1ccncc1
49 | 226 to 228 | CCCOc1ccc(F)c2c(=O)c(-c3ccc(OC)cc3)cn(CC(=O)NC3CCNCC3)c12
50 | 90 to 92 | CN1CCC2(CC1)CN(c1ccccc1)c1ccccc12
51 | 115 | C[C@H](NC(=O)c1ncc[nH]1)C(=O)NC(C=O)CC(=O)O (stereo partly specified)
52 | 233 to 236 | O=S1(=O)NC(C2CCCCC2)Nc2ccc(-c3ccccc3Cl)cc21 (stereo unspecified)
53 | 140 to 142 | O=C1CCc2cc(OCc3ccccc3)c(O)cc21
54 | 174 | CCC1(CC)NS(=O)(=O)c2ccccc21
55 | 123 to 124 | CC(=O)Oc1ccc2ccc(=O)oc2c1CC(Br)CBr (stereo unspecified)
56 | 100 to 103 | CCC(=O)CNC(=O)c1cc(OC)cc(Oc2cccc(C(F)(F)F)c2)n1
57 | 85 to 86 | CCOC(=O)C1=C(C=O)NC(C=O)=C(C(=O)OCC)C1c1ccccc1Cl
58 | 212 to 214 | Cc1c(C)c(N2CCN(c3ccc(C(F)(F)F)cc3)CC2)c(C)c2c1OC(C)(C)C2O (stereo unspecified)
59 | 159 to 161 | O=C1C(c2ccccc2)CC=C2c3ccsc3CCN12 (stereo unspecified)
60 | 150 to 152 | O=C1[C@H]2CCC[C@H]2N(C(=O)CCn2ccnc2)c2ccccc2N1Cc1ccccc1 (relative stereo)
61 | 136 to 138 | OC1CSc2nc(SCc3ccccc3)nn21 (stereo unspecified)
62 | 48 | CCOC(=O)CCc1ccccc1CNC(=O)C1Cc2ccccc2N1S(=O)(=O)c1ccc(-c2cccc(C(F)(F)F)c2)cc1 (stereo unspecified)
63 | 55 to 56 | O=C(c1ccc(Cl)cc1Cl)C1(n2cncn2)CC1
64 | 146 to 148 | O=C(O)C1CC=CCC1C(=O)N1CCc2cc(S(=O)(=O)N3CCN(c4cccc(Cl)c4)CC3)ccc21 (stereo unspecified)
65 | 201 to 203 | COc1ccc(-c2cc3cc(F)c(F)cc3[nH]2)cc1NC(=S)Nc1ccc(C(=O)O)cc1
66 | 57 | CC(=O)c1ccc(Cl)c(C)c1F
67 | 87 to 88 | COc1ccc(N2CCN(c3c(C)c(C)c4c(c3C)C(c3ccc(F)nc3)C(C)(C)O4)CC2)cc1 (stereo unspecified)
68 | 165 | Cc1cc(OCc2ccccc2)cc(C)c1NC(=O)CCl
69 | 187 to 188 | Nc1ncc(Sc2ccc(O)cc2)s1
70 | 250 to 251 | CNC(=O)Cn1nc(-c2ccc(OC)cc2)cc(C(=O)NC)c1=O

Row | melting point [°C] | SMILES
71 | 130 to 133 | Fc1ccc2onc(CCCN3CCN(c4cc5ccccc5cn4)CC3)c2c1
72 | 118 | O=C(Nc1ccc(Cl)cc1)Oc1ccc2c(c1)NCCC2
73 | 116 to 119 | O=C(Nc1ccc(C(=O)N2Cc3ccccc3Sc3ccccc32)cc1)c1ccccc1Cl
74 | 214 to 216 | Cc1[nH]c(=O)[nH]c1C(=O)c1ccco1
75 | 155 to 158 | Nc1csc2ccc([N+](=O)[O-])cc12
76 | 100 to 105 | O=C1c2cccc3cccc(c23)C1Br (stereo unspecified)
77 | 78 to 105 | CC(CC(=O)c1ccccc1)C(=O)N[C@@H](CS)C(=O)O (stereo partly specified)
78 | 171 to 175 | CCCC(=O)c1cnc2c(COC(=O)c3ccc(OC)cc3)cccc2c1Nc1ccc(O)cc1C
79 | 100 to 101 | COc1ccc(C(=O)OC2C(OC)C=C(C)C(=O)CC2(C)C)cc1 (stereo unspecified)
80 | 270 | COc1cccc(OC)c1-c1cc(C(=O)NC2(C(=O)O)C3CC4CC(C3)CC2C4)nn1-c1ccc(NC=O)c2ccccc12 (stereo unspecified)
81 | 225 to 226 | Cc1cnc(C(=O)c2[nH]c3cc(Cl)ccc3c2CC(=O)O)s1
82 | 191 to 192 | C#CCN(c1ccc(C(=O)OC(C)(C)C)cc1)C1CCc2cc3nc(COC)[nH]c(=O)c3cc21 (racemic)
83 | 155 to 157 | CC(=O)Nc1ccc(-c2cc3cccc(C(=O)OCCN4CCCCC4)c3o2)cc1
84 | 135 to 137 | COC(=O)C1(C)CCc2cc(C(=O)c3ccccc3)c(OC)cc21 (stereo unspecified)
85 | 104 to 108 | CN1CC(N(C(=O)c2ccc(Cl)cc2)c2ccccc2)CN1C
86 | > 188 | O=C(O)c1cc(NCc2ccc(C(F)(F)F)cc2)ccc1O
87 | 145 to 148 | Cc1ccc(C2(C(=O)O)CC2C(=O)O)cc1 (single isomer, unassigned; (-))
88 | 148 to 150 | Cc1ncoc1C(=O)Nc1ccc(-n2nc(C(F)(F)F)cc2C2CC2)c(F)c1
89 | 159 to 160 | C[C@@H]1C[C@H](C)CN(C(=O)[C@@H]2Cc3ccccc3N2c2cccnn2)C1
90 | 103 to 104 | CC(C)(C)OC(=O)COc1ccc(C(=O)CN2CCN(c3ccncc3)CC2)cc1
91 | 101 to 102 | CS(=O)(=O)Nc1ccc([C@@H]2CCC(=O)O2)cc1
92 | 236 to 238 | COC(=O)COc1ccc2cc(-c3cnc(Cc4ccccc4)o3)ccc2c1
93 | 238 to 240 | Cn1cc(C2=C(c3c4n(c5ccccc35)CCC(CNC(=O)OC(C)(C)C)C4)C(=O)N(O)C2=O)c2ccccc21 (stereo unspecified)
94 | > 300 | N#Cc1cccc(-c2nc(-c3ccc(C(=O)O)cc3)cc3cccnc23)c1
95 | 101 | COC(C)=CC(=O)Nc1ccccc1C
96 | 69 | COC(=S)C1CCn2c(C(=O)c3ccccc3)ccc21 (stereo unspecified)
